Calls of active or inactive are those of the source. The rule behind the calls is not given here.
What was measured:
[1] = AUC (0 to infinity) in ICR mouse at 30 mg/kg, po administered as single dose via gavage by LC-MS/MS analysis; assay type: ADME, organism-based; set-up: time infinity, route oral, dose 30 mg/kg; conditions: in vivo
[2] = Terminal half life in ICR mouse at 10 mg/kg, iv administered as single dose by LC-MS/MS analysis; assay type: ADME, organism-based; conditions: in vivo, read-out: beta t1/2 (converted)
[3] = target: ERBB4 (Receptor tyrosine-protein kinase erbB-4) (Homo sapiens, UniProt Q15303); experiment: Inhibition of recombinant human N-terminal GST-tagged ERBB4 catalytic domain (708 to 993 residues) expressed in baculovirus expression system at 100 nM using tyrosine-1 peptide as substrate incubated for 60 mins in presence of ATP by Z'-LYTE assay relative to control; conditions: probe tyrosine-1 peptide
Sequence of ERBB4 (Receptor tyrosine-protein kinase erbB-4) (Q15303 whole entry, the tested form may be a part): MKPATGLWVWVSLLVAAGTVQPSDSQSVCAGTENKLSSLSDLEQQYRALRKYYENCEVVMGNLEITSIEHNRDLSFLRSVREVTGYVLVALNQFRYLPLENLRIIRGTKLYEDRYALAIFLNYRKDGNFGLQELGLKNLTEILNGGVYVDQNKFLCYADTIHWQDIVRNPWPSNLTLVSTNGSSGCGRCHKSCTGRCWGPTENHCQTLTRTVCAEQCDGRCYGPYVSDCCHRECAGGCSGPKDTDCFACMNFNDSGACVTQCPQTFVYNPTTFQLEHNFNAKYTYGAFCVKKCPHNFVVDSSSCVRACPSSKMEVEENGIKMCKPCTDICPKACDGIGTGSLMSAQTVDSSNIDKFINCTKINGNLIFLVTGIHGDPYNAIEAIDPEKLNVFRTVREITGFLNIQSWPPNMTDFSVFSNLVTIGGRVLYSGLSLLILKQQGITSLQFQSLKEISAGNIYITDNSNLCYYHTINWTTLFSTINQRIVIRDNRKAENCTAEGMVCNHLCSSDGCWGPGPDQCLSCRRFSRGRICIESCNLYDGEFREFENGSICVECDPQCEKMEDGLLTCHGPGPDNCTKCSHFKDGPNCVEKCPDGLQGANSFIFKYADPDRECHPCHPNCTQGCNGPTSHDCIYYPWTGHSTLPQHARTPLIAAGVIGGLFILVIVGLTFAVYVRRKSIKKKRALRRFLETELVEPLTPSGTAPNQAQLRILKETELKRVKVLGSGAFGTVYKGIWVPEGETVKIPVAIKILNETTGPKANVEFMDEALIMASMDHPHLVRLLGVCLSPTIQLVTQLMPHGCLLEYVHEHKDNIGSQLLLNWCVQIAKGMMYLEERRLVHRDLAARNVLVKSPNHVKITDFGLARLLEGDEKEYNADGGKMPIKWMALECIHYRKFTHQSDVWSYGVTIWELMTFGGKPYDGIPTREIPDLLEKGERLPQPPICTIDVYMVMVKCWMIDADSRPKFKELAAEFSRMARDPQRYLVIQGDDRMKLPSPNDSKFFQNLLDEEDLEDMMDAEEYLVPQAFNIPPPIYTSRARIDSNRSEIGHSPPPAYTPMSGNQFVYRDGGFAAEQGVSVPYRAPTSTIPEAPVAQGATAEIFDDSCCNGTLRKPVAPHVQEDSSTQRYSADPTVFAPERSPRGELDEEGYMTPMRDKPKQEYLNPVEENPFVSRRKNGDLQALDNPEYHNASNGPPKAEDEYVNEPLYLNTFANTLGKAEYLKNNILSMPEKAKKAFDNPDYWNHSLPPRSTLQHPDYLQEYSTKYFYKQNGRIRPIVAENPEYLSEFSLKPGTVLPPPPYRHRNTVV

[4] = target: T1, Tyrosine-protein kinase JAK3 (Mus musculus) (UniProt Q62137); experiment: Inhibition of JAK3 in anti-CD3/-CD28 coated mouse T cells assessed as reduction in IL2-induced STAT5 phosphorylation at 10 uM preincubated for 1 hr followed by IL2 stimulation and measured after 30 mins by Western blot analysis; conditions: T cell
T1 sequence (whole entry): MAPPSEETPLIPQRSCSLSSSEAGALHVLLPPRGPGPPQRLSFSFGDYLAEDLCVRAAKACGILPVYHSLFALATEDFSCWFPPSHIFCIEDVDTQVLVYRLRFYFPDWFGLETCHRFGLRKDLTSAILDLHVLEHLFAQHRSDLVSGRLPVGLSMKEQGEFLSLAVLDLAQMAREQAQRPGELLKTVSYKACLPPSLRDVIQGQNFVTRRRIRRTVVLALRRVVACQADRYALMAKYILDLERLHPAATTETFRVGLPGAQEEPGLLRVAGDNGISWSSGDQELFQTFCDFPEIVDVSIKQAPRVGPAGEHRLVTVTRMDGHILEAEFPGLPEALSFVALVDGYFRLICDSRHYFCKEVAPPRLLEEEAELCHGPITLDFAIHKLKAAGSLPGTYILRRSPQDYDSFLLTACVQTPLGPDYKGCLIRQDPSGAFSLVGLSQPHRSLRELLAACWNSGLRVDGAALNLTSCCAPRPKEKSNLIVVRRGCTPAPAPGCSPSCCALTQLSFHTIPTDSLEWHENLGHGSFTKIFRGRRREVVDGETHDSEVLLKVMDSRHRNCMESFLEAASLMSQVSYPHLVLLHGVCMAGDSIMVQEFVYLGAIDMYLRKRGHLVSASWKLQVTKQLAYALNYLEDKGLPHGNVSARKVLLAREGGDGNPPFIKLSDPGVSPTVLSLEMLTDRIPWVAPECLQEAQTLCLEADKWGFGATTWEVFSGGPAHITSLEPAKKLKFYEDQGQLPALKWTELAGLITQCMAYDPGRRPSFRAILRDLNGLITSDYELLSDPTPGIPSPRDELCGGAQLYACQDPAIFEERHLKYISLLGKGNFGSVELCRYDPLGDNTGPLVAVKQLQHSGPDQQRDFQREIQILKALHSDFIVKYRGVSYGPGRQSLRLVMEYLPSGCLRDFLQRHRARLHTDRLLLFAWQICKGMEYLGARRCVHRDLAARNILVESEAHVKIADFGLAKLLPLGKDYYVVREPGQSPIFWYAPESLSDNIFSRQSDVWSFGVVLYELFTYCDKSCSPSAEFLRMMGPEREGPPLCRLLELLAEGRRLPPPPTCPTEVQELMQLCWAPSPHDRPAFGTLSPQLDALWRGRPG

[5] = Cytotoxicity against IL-4-treated mouse T cells assessed as reduction in cell viability at 10 uM measured after 72 hrs by MTS assay; assay type: cell-based
[6] = target: T2, Tyrosine-protein kinase JAK3 (Homo sapiens) (UniProt P52333); experiment: Irreversible inhibition of recombinant human GST-tagged JAK3 cytoplasmic domain (781 to 1124 residues) expressed in baculovirus expression system at IC90 using TK-substrate-biotin preincubated for 30 mins followed by 1000 fold dilution and measured after 24 hrs by HTRF assay; conditions: time 24.5 hrs
T2 sequence (whole entry): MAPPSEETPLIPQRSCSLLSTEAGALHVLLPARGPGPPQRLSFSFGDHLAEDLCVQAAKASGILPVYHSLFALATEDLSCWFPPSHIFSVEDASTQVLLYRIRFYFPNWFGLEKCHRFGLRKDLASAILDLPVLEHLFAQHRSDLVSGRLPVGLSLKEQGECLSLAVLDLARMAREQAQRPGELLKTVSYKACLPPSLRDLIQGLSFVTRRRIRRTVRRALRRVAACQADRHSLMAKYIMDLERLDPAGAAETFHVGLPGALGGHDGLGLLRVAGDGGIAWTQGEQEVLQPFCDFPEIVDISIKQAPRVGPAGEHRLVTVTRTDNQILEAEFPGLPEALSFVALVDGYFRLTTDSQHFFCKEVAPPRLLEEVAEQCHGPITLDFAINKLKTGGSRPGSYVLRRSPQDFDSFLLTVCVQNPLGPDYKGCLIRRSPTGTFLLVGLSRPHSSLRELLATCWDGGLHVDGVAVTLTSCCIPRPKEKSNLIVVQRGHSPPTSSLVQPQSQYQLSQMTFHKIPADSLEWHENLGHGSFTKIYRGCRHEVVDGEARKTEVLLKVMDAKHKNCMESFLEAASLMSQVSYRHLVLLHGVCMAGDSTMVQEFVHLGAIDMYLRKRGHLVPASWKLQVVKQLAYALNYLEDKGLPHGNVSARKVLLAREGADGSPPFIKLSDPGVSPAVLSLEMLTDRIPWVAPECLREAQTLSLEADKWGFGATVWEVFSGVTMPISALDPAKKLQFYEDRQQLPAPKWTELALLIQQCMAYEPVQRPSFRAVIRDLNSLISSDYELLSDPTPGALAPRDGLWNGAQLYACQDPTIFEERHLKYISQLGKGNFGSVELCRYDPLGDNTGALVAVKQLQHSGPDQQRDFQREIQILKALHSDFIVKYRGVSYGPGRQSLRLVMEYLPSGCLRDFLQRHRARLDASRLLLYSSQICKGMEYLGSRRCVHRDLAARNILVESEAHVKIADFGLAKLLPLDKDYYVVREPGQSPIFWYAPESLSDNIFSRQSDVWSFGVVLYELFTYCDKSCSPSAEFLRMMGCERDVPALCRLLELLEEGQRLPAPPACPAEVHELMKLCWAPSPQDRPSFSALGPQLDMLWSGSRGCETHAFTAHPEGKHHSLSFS

[7] = Plasma clearance in ICR mouse at 10 mg/kg, iv administered as single dose by LC-MS/MS analysis; assay type: ADME, organism-based; conditions: in vivo

AUC [1]: 897.12 ng·h/mL
half-life [2]: 28.2 min
inhibition at 1 h, 0.1 µM [3]: 8%
inhibition [4]: Active
inhibition [6]: Active
CLz/F [7]: 136 mL/min/kg
Structure (SMILES): C=CC(=O)Nc1ccc(-c2ccnc(Nc3ccc(N4CCOCC4)cc3)n2)cc1
Activity [5]: Non-Toxic

Reference: ChEMBL document CHEMBL4680201, “Design, synthesis, and pharmacological evaluation of 4- or 6-phenyl-pyrimidine derivatives as novel and selective Janus kinase 3 inhibitors” (Eur J Med Chem, 2020)
